One test relates to PC3 cells. Briefly: NAMPT Cell Proliferation Assay. The format is cell-based. The note with it: Homo sapiens, PC-3, 120 h, 5 days incubation, cell viability by Cell Titer Glo. The essentials:
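PC3 cells were plated at 500 cells/well in RPMI with 10% heat-inactivated FBS, left to attach overnight, then given compounds in 10-fold dilutions from 10 μM to 1×10^−5 μM. After 5 days at 37° C and 5% CO2, viability was read by luminescence and IC50s came from sigmoidal fits of percent inhibition.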
In general terms: In ATP-based viability assays light output follows the ATP content of the culture.

Test [1] deals with NAMPT (human, recombinant, C-terminally His-tagged) (Homo sapiens, UniProt P43490). Briefly: Time-Resolved Fluorescence Resonance Energy Transfer (TR-FRET) Binding Assay of NAMPT. The note with it: without substrates; 6.8 nM NAMPT, 200 nM probe, 3 hours equilibration. The essentials:
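In a displacement format, the nicotinamide-site tracer at 200 nM competed with test compound for 6.8 nM enzyme detected via 1 nM terbium anti-His antibody; incubation lasted 3 hours at room temperature in 50 mM HEPES pH 7.5, 100 mM NaCl. Normalized 520/495 nm emission ratios gave IC50 values.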
For orientation: In TR-FRET formats the signal depends on donor and acceptor labels being close together.

In the next test the target is NAMPT (Homo sapiens, UniProt P43490). Kind of test: TR-FRET Binding Assay of NAMPT with PRPP. To be noted: with 200 μM PRPP and 2.5 mM ATP; 2 nM NAMPT, 2 nM probe, 16 hours equilibration. Summed up:
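Substrate-containing variant: 200 μM PRPP plus 2.5 mM ATP are added to 2 nM NAMPT and 2 nM probe, with a 16-hour incubation ahead of TR-FRET reading.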

The structures appear in SMILES notation. pIC50: −log10 of the molar value. Some results are limits rather than exact numbers.

NAMPT (human, recombinant, C-terminally His-tagged), sequence (P43490 whole entry): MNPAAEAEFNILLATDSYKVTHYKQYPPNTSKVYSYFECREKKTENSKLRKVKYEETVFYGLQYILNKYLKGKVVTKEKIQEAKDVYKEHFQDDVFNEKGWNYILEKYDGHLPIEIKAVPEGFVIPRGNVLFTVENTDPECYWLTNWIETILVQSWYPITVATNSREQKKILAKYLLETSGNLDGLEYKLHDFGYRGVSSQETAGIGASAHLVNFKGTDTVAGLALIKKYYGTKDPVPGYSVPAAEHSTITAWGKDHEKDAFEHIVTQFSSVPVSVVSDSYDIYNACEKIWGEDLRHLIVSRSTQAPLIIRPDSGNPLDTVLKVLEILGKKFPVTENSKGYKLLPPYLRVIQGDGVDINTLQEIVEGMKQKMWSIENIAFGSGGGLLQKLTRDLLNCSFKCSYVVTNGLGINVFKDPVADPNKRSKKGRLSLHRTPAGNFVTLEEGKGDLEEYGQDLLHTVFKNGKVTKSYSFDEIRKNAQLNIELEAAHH
NAMPT, sequence (P43490 whole entry): as above

As to `CC(C)C(=O)N1CC[C@@H](Oc2ccc(C(=O)NCc3ccn4ccnc4c3)cc2)C1` [Example 492, N-(imidazo[1,2-a]pyridin-7-ylmethyl)-4-{[(3R)-1-(2-methylpropanoyl)pyrrolidin-3-yl]oxy}benzamide], the pIC50 (in general, the negative decadic logarithm of the IC50, by convention in mol/L) was 5.90 in the test on PC3 cells, under 5.00 in test [1] and 9.06 at NAMPT.
The matching figures for `O=C(NCc1ccn2ccnc2c1)c1ccc(O[C@@H]2CCN(C(=O)c3ccccc3)C2)cc1` [Example 493, 4-{[(3R)-1-benzoylpyrrolidin-3-yl]oxy}-N-(imidazo[1,2-a]pyridin-7-ylmethyl)benzamide]: 6.31, 5.89 and 9.34.
In the case of `O=C(NCc1ccn2ccnc2c1)c1ccc(O[C@@H]2CCN(C(=O)[C@H]3CCOC3)C2)cc1` [Example 494, N-(imidazo[1,2-a]pyridin-7-ylmethyl)-4-({(3R)-1-[(3S)-tetrahydrofuran-3-ylcarbonyl]pyrrolidin-3-yl}oxy)benzamide], the pIC50 is 5.91 with PC3 cells, 5.12 in test [1] and 9.15 at NAMPT.
The matching figures for `CC[C@H](C)C(=O)N1CC[C@@H](Oc2ccc(C(=O)NCc3ccn4ccnc4c3)cc2)C1` [Example 495, N-(imidazo[1,2-a]pyridin-7-ylmethyl)-4-({(3R)-1-[(25)-2-methylbutanoyl]pyrrolidin-3-yl}oxy)benzamide]: 6.90, 5.83 and 9.40.
The matching figures for `O=C(NCc1ccn2ccnc2c1)Nc1ccc(Oc2ccccc2)cc1` [Example 496, 1-(imidazo[1,2-a]pyridin-7-ylmethyl)-3-(4-phenoxyphenyl)urea]: 5.15, 6.70 and 8.94.
Turning to `CC(C)Cn1cc(-c2ccc(C(=O)NCc3ccn4ncnc4c3)s2)cn1` [Example 497, 5-[1-(2-methylpropyl)-1H-pyrazol-4-yl]-N-([1,2,4]triazolo[1,5-a]pyridin-7-ylmethyl)thiophene-2-carboxamide], the pIC50 with PC3 cells was 6.13; in test [1], 7.62; at NAMPT, 8.54.
For the molecule `O=C(NCc1ccn2ccnc2c1)c1ccc(C2CCN(C(=O)c3ccccn3)CC2)cc1` [Example 498, N-(imidazo[1,2-a]pyridin-7-ylmethyl)-4-[1-(pyridin-2-ylcarbonyl)piperidin-4-yl]benzamide], the values for the pIC50 (with PC3 cells; in test [1]; at NAMPT) were 7.75, 6.51 and 9.77, respectively.
The matching figures for `CC(C)(C)CC(=O)N1CCC(c2ccc(C(=O)NCc3ccn4ccnc4c3)cc2)CC1` [Example 499, 4-[1-(3,3-dimethylbutanoyl)piperidin-4-yl]-N-(imidazo[1,2-a]pyridin-7-ylmethyl)benzamide]: 8.66, 6.95 and 9.42.
Turning to `Cc1ccc(C(=O)N2CCC(c3ccc(C(=O)NCc4ccn5ccnc5c4)cc3)CC2)cc1` [Example 500, N-(imidazo[1,2-a]pyridin-7-ylmethyl)-4-[1-(4-methylbenzoyl)piperidin-4-yl]benzamide], the values for the pIC50 (in the test on PC3 cells; in test [1]; on NAMPT) were 7.66, 6.74 and 9.77, respectively.
The matching figures for `CCC(C)(C)C(=O)N1CCC(c2ccc(C(=O)NCc3ccn4ccnc4c3)cc2)CC1` [Example 501, 4-[1-(2,2-dimethylbutanoyl)piperidin-4-yl]-N-(imidazo[1,2-a]pyridin-7-ylmethyl)benzamide]: 8.22, 6.98 and 9.32.
The matching figures for `O=C(NCc1ccn2ccnc2c1)c1ccc(C2CCN(C(=O)C3CCCCC3)CC2)cc1` [Example 502, 4-[1-(cyclohexylcarbonyl)piperidin-4-yl]-N-(imidazo[1,2-a]pyridin-7-ylmethyl)benzamide]: 7.78, 6.77 and 9.41.
The matching figures for `O=C(NCc1ccn2ccnc2c1)c1ccc(C2CCN(C(=O)c3cccs3)CC2)cc1` [Example 503, N-(imidazo[1,2-a]pyridin-7-ylmethyl)-4-[1-(thiophen-2-ylcarbonyl)piperidin-4-yl]benzamide]: 8.38, 7.27 and 9.56.
Regarding `O=C(NCc1ccn2ccnc2c1)c1ccc(C2CCN(C(=O)CC(F)(F)F)CC2)cc1` [Example 504, N-(imidazo[1,2-a]pyridin-7-ylmethyl)-4-[1-(3,3,3-trifluoropropanoyl)piperidin-4-yl]benzamide], the pIC50 in the test with PC3 cells is 7.81; in test [1], 6.73; at NAMPT, 9.44.
`CCCC(=O)N1CCC(c2ccc(C(=O)NCc3ccn4ccnc4c3)cc2)CC1` [Example 505, 4-(1-butanoylpiperidin-4-yl)-N-(imidazo[1,2-a]pyridin-7-ylmethyl)benzamide]: the pIC50 was 7.52 with PC3 cells, 6.60 in test [1] and 9.45 at NAMPT.
The matching figures for `O=C(NCc1ccn2ccnc2c1)c1ccc(C2CCN(C(=O)c3ccc(F)cc3F)CC2)cc1` [Example 506, 4-[1-(2,4-difluorobenzoyl)piperidin-4-yl]-N-(imidazo[1,2-a]pyridin-7-ylmethyl)benzamide]: 7.74, 6.61 and 9.39.
For the molecule `Cc1ccccc1C(=O)N1CCC(c2ccc(C(=O)NCc3ccn4ccnc4c3)cc2)CC1` [Example 507, N-(imidazo[1,2-a]pyridin-7-ylmethyl)-4-[1-(2-methylbenzoyl)piperidin-4-yl]benzamide], the negative logarithm of the IC50 (pIC50) in the test on PC3 cells is 8.49; in test [1] it was 6.92; on NAMPT, 9.44.
The matching figures for `O=C(NCc1ccn2ccnc2c1)c1ccc(C2CCN(C(=O)c3ccc(F)cc3)CC2)cc1` [Example 508, 4-[1-(4-fluorobenzoyl)piperidin-4-yl]-N-(imidazo[1,2-a]pyridin-7-ylmethyl)benzamide]: 7.54, 6.59 and 9.32.
For `CC(C)(C)C(=O)N1CCC(c2ccc(C(=O)NCc3ccn4ccnc4c3)cc2)CC1` [Example 509, 4-[1-(2,2-dimethylpropanoyl)piperidin-4-yl]-N-(imidazo[1,2-a]pyridin-7-ylmethyl)benzamide], the pIC50 in the test with PC3 cells is 8.13; in test [1] it was 6.79; at NAMPT it was 9.42.
The matching figures for `CC/C=C(\C)C(=O)N1CCC(c2ccc(C(=O)NCc3ccn4ccnc4c3)cc2)CC1` [Example 510, N-(imidazo[1,2-a]pyridin-7-ylmethyl)-4-{1-[(2E)-2-methylpent-2-enoyl]piperidin-4-yl}benzamide]: 7.92, 6.85 and 9.55.
The matching figures for `Cn1nccc1C(=O)N1CCC(c2ccc(C(=O)NCc3ccn4ccnc4c3)cc2)CC1` [Example 511, N-(imidazo[1,2-a]pyridin-7-ylmethyl)-4-{1-[(1-methyl-1H-pyrazol-5-yl)carbonyl]piperidin-4-yl}benzamide]: 8.56, 7.19 and 9.54.
As to `CC1(C(=O)N2CCC(c3ccc(C(=O)NCc4ccn5ccnc5c4)cc3)CC2)COC1` [Example 512, N-(imidazo[1,2-a]pyridin-7-ylmethyl)-4-{1-[(3-methyloxetan-3-yl)carbonyl]piperidin-4-yl}benzamide], the figures for the pIC50 (with PC3 cells; in test [1]; on NAMPT) were 7.75, 6.20 and 9.68, respectively.
The matching figures for `O=C(NCc1ccn2ccnc2c1)c1ccc(C2CCN(C(=O)c3ccccc3F)CC2)cc1` [Example 513, 4-[1-(2-fluorobenzoyl)piperidin-4-yl]-N-(imidazo[1,2-a]pyridin-7-ylmethyl)benzamide]: 8.93, 7.62 and 9.73.
The matching figures for `N#CC1(C(=O)N2CCC(c3ccc(C(=O)NCc4ccn5ccnc5c4)cc3)CC2)CC1` [Example 514, 4-{1-[(1-cyanocyclopropyl)carbonyl]piperidin-4-yl}-N-(imidazo[1,2-a]pyridin-7-ylmethyl)benzamide]: 7.51, 6.43 and 9.60.
The matching figures for `O=C(NCc1ccn2ccnc2c1)c1ccc(C2CCN(C(=O)C3CCCC3)CC2)cc1` [Example 515, 4-[1-(cyclopentylcarbonyl)piperidin-4-yl]-N-(imidazo[1,2-a]pyridin-7-ylmethyl)benzamide]: 7.80, 6.74 and 9.57.
For `O=C(NCc1ccn2ccnc2c1)c1ccc(C2CCN(C(=O)c3cccc(F)c3)CC2)cc1` [Example 516, 4-[1-(3-fluorobenzoyl)piperidin-4-yl]-N-(imidazo[1,2-a]pyridin-7-ylmethyl)benzamide], the pIC50 is 7.67 in the test on PC3 cells, 6.93 in test [1] and 9.58 on NAMPT.
Consider `Cn1cc(C(=O)N2CCC(c3ccc(C(=O)NCc4ccn5ccnc5c4)cc3)CC2)cn1` [Example 517, N-(imidazo[1,2-a]pyridin-7-ylmethyl)-4-{1-[(1-methyl-1H-pyrazol-4-yl)carbonyl]piperidin-4-yl}benzamide], for which the results for the pIC50 (in the test on PC3 cells; in test [1]; on NAMPT) were 7.14, 6.48 and 9.58, respectively.

The record behind these values is patent US9187472B2 (AbbVie Inc., priority 2012, dated 2015).
